Key:
DNA ligase = assay: Storage stability of dried ATP by DNA ligase assay; type: biochemical; conditions: ATP at 0.5 mM dried with ligase in trehalose buffer, no acetate as efflorescent salt; 2 weeks at 37°C
Excerpt: Using an assay for DNA ligase whioh joins DNA fragments using ATP as an energy source.

[1] = solutions of 25% wv, in six hours at 5°C; cited from earlier work

Question: For Nc1ncnc2c1ncn2[C@@H]1O[C@H](COP(=O)(O)OP(=O)(O)OP(=O)(O)O)[C@@H](O)[C@H]1O [ATP], which “stability of ATP in the dry state” value (DNA ligase) is on record?
Answer: Its value is “completely stable”.

Question: Which loss of potency [1] does the source give for CC1(C)S[C@@H]2[C@H](NC(=O)[C@H](N)c3ccccc3)C(=O)N2[C@H]1C(=O)O [Ampicillin sodium] here?
Answer: Its loss of potency is 20%.

From patent publication EP0415567A2, “Composition and method for stabilising organic compounds” (QUADRANT BIORESOURCES LIMITED, priority 1989, dated 1991)
